Measurements from the NIST ThermoML archive (doi:10.1021/je7000232).

Assays:
[1] = Liquid, Closed cell (Static) method
[2] = xn = mol fraction of the nth substance listed; conditions: 293.15 K, 101 kPa, Liquid, Capillary tube (Ostwald / Ubbelohde) method
[3] = excess molar enthalpy (molar enthalpy of mixing); xn = mol fraction of the nth substance listed; conditions: 101 kPa, Liquid

O [water]
[1]
Conditions | vapor or sublimation pressure [kPa]
303.15 K | 4.24
313.15 K | 7.38
323.15 K | 12.34

CC(O)C(=O)[O-].C[N+](C)(C)CCO [choline lactate] + O
[2]
Conditions | viscosity [mPa·s]
x2 = 0.0272 | 5850
x2 = 0.382 | 940
x2 = 0.546 | 336
x2 = 0.731 | 75
x2 = 0.878 | 12.5
x2 = 0.915 | 6.5
x2 = 0.941 | 3.9

[3]
Conditions | excess molar enthalpy [kcal/mol]
303.15 K, x2 = 0.1585 | -0.938
303.15 K, x2 = 0.2269 | -1.51
303.15 K, x2 = 0.3051 | -2.04
303.15 K, x2 = 0.3528 | -2.4
303.15 K, x2 = 0.4853 | -3.35
303.15 K, x2 = 0.671 | -4.12
303.15 K, x2 = 0.8719 | -4.37
303.15 K, x2 = 0.9078 | -3.55
303.15 K, x2 = 0.9751 | -1.87
303.15 K, x2 = 0.9878 | -0.604
313.15 K, x2 = 0.1687 | -0.723
313.15 K, x2 = 0.2123 | -1.1
313.15 K, x2 = 0.3065 | -1.57
313.15 K, x2 = 0.3943 | -2.11
313.15 K, x2 = 0.5019 | -2.6
313.15 K, x2 = 0.603 | -2.9
313.15 K, x2 = 0.738 | -3.3
313.15 K, x2 = 0.8794 | -3.48
313.15 K, x2 = 0.9535 | -2.47
313.15 K, x2 = 0.9769 | -1.55
323.15 K, x2 = 0.16 | -0.368
323.15 K, x2 = 0.2662 | -0.649
323.15 K, x2 = 0.331 | -0.856
323.15 K, x2 = 0.5059 | -1.55
323.15 K, x2 = 0.6257 | -2.15
323.15 K, x2 = 0.7785 | -2.6
323.15 K, x2 = 0.8805 | -2.09
323.15 K, x2 = 0.9555 | -1.1
323.15 K, x2 = 0.9884 | -0.239
